From ChEMBL document CHEMBL1201862, “PubChem BioAssay data set” (2004)
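Five compound concentrations were applied to cells in 96-well plates for 48 hours; endpoints were derived by simple linear interpolation of the resulting dose-response curve. Here, GI50 denotes the concentration required for 50% inhibition of growth.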 Calls of active or inactive are those of the source. No stated cut-off is given here; in the data, active = GI50 up to about 1.1 µM and inactive = higher.

Tests used:
Test in all cases: inhibition of tumour cell growth, NCI panel, 48 h
BT-549 = test system: BT-549
DU-145 = test system: DU-145
HL-60 = test system: HL-60
Hs-578T = test system: Hs-578T
MDA-MB-231 = test system: MDA-MB-231
MDA-MB-435 = test system: MDA-MB-435
MDA-N = test system: MDA-N
OVCAR-5 = test system: OVCAR-5
PC-3 = test system: PC-3
RXF 393 = test system: RXF 393
SF-539 = test system: SF-539
SN12C = test system: SN12C
SR = test system: SR
T47D = test system: T47D
TK-10 = test system: TK-10
ACHN = test system: ACHN
Malme-3M = test system: Malme-3M
786-0 = test system: 786-0
OVCAR-3 = test system: OVCAR-3
HOP-18 = test system: HOP-18

SMILES	GI50 (BT-549)	GI50 (DU-145)	GI50 (HL-60)	GI50 (Hs-578T)	GI50 (MDA-MB-231)	GI50 (MDA-MB-435)	GI50 (MDA-N)	GI50 (OVCAR-5)	GI50 (PC-3)	GI50 (RXF 393)	GI50 (SF-539)	GI50 (SN12C)	GI50 (SR)	GI50 (T47D)	GI50 (TK-10)	GI50 (ACHN)	GI50 (Malme-3M)	GI50 (786-0)	GI50 (OVCAR-3)	GI50 (HOP-18)
O=c1ccc2ccc(CBr)cc2o1	3 µM (inactive)	17.1 µM (inactive)	1.76 µM (inactive)	9.84 µM (inactive)	1.72 µM (inactive)	3.14 µM (inactive)	3.85 µM (inactive)	1.73 µM (inactive)	> 100 µM (inactive)	1.94 µM (inactive)	3.97 µM (inactive)	2.69 µM (inactive)	2.2 µM (inactive)	2.38 µM (inactive)	1.75 µM (inactive)					
COc1cc(C2S/C(=C/c3ccccc3)C(=O)N2c2ccccc2Cl)cc(OC)c1OC (stereo unspecified)	29.3 µM (inactive)			16.5 µM (inactive)	23.4 µM (inactive)	15.6 µM (inactive)	15.7 µM (inactive)	42.5 µM (inactive)	21.8 µM (inactive)	9.53 µM (inactive)		21.4 µM (inactive)		5.26 µM (inactive)	76.2 µM (inactive)	44.4 µM (inactive)	29.8 µM (inactive)			
COc1ccc2nc(-n3c(/C=C/c4ccccc4O)nc4ccccc4c3=O)sc2c1	27.5 µM (inactive)	> 100 µM (inactive)	43.4 µM (inactive)	> 100 µM (inactive)	> 100 µM (inactive)	19.7 µM (inactive)	17 µM (inactive)	> 100 µM (inactive)	53.5 µM (inactive)	71.6 µM (inactive)					> 100 µM (inactive)	> 100 µM (inactive)	71.6 µM (inactive)	35.9 µM (inactive)	> 100 µM (inactive)	
C[C@H](N[C@H]1CCC[C@]1(O)C#Cc1ccc2c(c1)OCO2)c1ccccc1		> 25 µM (inactive)	> 25 µM (inactive)	> 25 µM (inactive)	22.1 µM (inactive)	> 25 µM (inactive)		> 25 µM (inactive)	13.6 µM (inactive)	> 25 µM (inactive)			20.7 µM (inactive)	21.8 µM (inactive)	> 25 µM (inactive)	> 25 µM (inactive)				
Cc1ccc(S(=O)(=O)NNC(=O)Nc2ccc(Cl)cc2)cc1		> 100 µM (inactive)	> 100 µM (inactive)	> 100 µM (inactive)	> 100 µM (inactive)	> 100 µM (inactive)	> 100 µM (inactive)	> 100 µM (inactive)	> 100 µM (inactive)	> 100 µM (inactive)	54 µM (inactive)	> 100 µM (inactive)	> 100 µM (inactive)	> 100 µM (inactive)	> 100 µM (inactive)	6.22 µM (inactive)	> 100 µM (inactive)	> 100 µM (inactive)		
CC(=O)C(CN1CCCCC1)C(c1ccccc1)c1c(O)c2ccccc2oc1=O (stereo unspecified)	> 100 µM (inactive)	> 100 µM (inactive)	59.4 µM (inactive)	> 100 µM (inactive)	> 100 µM (inactive)	> 100 µM (inactive)	> 100 µM (inactive)	> 100 µM (inactive)	> 100 µM (inactive)	> 100 µM (inactive)	> 100 µM (inactive)	> 100 µM (inactive)	> 100 µM (inactive)	> 100 µM (inactive)	> 100 µM (inactive)	> 100 µM (inactive)	> 100 µM (inactive)	> 100 µM (inactive)	> 100 µM (inactive)	
Cc1ccc(S(=O)(=O)OCCN(CCOS(=O)(=O)c2ccc(C)cc2)c2ccc(C=O)cc2)cc1	28.8 µM (inactive)	27.1 µM (inactive)	42.3 µM (inactive)	36.2 µM (inactive)	23.8 µM (inactive)	21.4 µM (inactive)		25.3 µM (inactive)	32.7 µM (inactive)	15.7 µM (inactive)	24.8 µM (inactive)			40.7 µM (inactive)	36.3 µM (inactive)	33.6 µM (inactive)	25.4 µM (inactive)		23.7 µM (inactive)	
Clc1nc(-[n+]2ccc(-c3ccncc3)cc2)nc(Nc2ccccc2)c1Cl	> 100 µM (inactive)	> 100 µM (inactive)	35.3 µM (inactive)	> 100 µM (inactive)	> 100 µM (inactive)	> 100 µM (inactive)	> 100 µM (inactive)	> 100 µM (inactive)	> 100 µM (inactive)	> 100 µM (inactive)	> 100 µM (inactive)	> 100 µM (inactive)	26.2 µM (inactive)	43.7 µM (inactive)	> 100 µM (inactive)	> 100 µM (inactive)	> 100 µM (inactive)	83.8 µM (inactive)	> 100 µM (inactive)	
CCCCCCCCCCCCSC(=S)c1c(C)[nH]n(CCCCCCCCCCCC)c1=O			66.7 µM (inactive)					> 100 µM (inactive)			> 100 µM (inactive)	77.1 µM (inactive)	> 100 µM (inactive)			55.2 µM (inactive)	34.6 µM (inactive)		> 100 µM (inactive)	65 µM (inactive)
CCOC(=O)/C(Cl)=C(\C)Nc1nc2c(ccc3ccccc32)s1	61.7 µM (inactive)	20.6 µM (inactive)	38.1 µM (inactive)	35 µM (inactive)	60.5 µM (inactive)		26.3 µM (inactive)	81.1 µM (inactive)	22.5 µM (inactive)			47.6 µM (inactive)	19.5 µM (inactive)	13.6 µM (inactive)	> 100 µM (inactive)	> 100 µM (inactive)	15.6 µM (inactive)		46.8 µM (inactive)	
COC(=O)C(Cc1ccc2c(c1)OCO2)(NC(=O)c1ccccc1)P(=O)(OC)OC (stereo unspecified)			> 100 µM (inactive)					> 100 µM (inactive)		> 100 µM (inactive)	> 100 µM (inactive)	> 100 µM (inactive)	> 100 µM (inactive)		> 100 µM (inactive)	> 100 µM (inactive)				
Nc1nc(Cl)nc2c1ncn2C1CC(O)C(CO)O1 (stereo unspecified)			0.0601 µM (active)					1.78 µM (inactive)		24.9 µM (inactive)	20.3 µM (inactive)	0.738 µM (active)					> 100 µM (inactive)		25.8 µM (inactive)	> 100 µM (inactive)
C=C1CC(Cn2cc(Br)c(=O)[nH]c2=O)(c2ccc(Br)cc2)OC1=O (stereo unspecified)	2.37 µM (inactive)	5.65 µM (inactive)	0.621 µM (active)	5.98 µM (inactive)	4.47 µM (inactive)	2.88 µM (inactive)	2.37 µM (inactive)	6.38 µM (inactive)	3.56 µM (inactive)		6.44 µM (inactive)	6.81 µM (inactive)	1.52 µM (inactive)	2.03 µM (inactive)	7.23 µM (inactive)	3.66 µM (inactive)	1.87 µM (inactive)	1.63 µM (inactive)	3.34 µM (inactive)	
C=C1C(=O)O[C@@H]2[C@H](O)[C@@H](C)[C@@H]3C=CC(=O)[C@@]3(C)[C@@H](OC(=O)/C(C)=C/C)[C@H]12			0.355 µM (active)					3.81 µM (inactive)		0.63 µM (active)	0.468 µM (active)	0.465 µM (active)					0.914 µM (active)		0.719 µM (active)	1.9 µM (inactive)
